{
  "source": "ChEMBL document CHEMBL6103619",
  "about": "“Discovery of a Novel CRBN-Recruiting cGAS PROTAC Degrader for the Treatment of Ulcerative Colitis” (J Med Chem, 2025)",
  "key": {"[1]": {"assay": "AUC (0 to 24 hrs) in male C57BL/6 mouse at 1 mg/kg, iv measured after 24 hrs by LC-MS/MS analysis", "format": "ADME, organism-based", "conditions": "in vivo"}, "THP-1 [2]": {"tested_on": "THP-1", "assay": "Downregulation of IFNB mRNA expression level in HT-DNA-induced human THP-1 cells at 20 uM preincubated with compound for 12 hrs followed by HT-DNA addition and measured after 8 hrs by RT-qPCR analysis", "format": "functional, cell-based", "conditions": "time 20.0 hrs"}, "RAW264.7 [3]": {"tested_on": "RAW264.7", "assay": "Downregulation of IFNB mRNA expression in mouse RAW264.7 cells preincubated with compound for 40 hrs followed by HT-DNA addition and measured after 8 hrs by qRT-PCR analysis", "format": "functional, cell-based", "conditions": "dose 2.5-20 µM, time 48.0 hrs"}, "[4]": {"assay": "Cytotoxicity against human THP1-Lucia ISG cells assessed as reduction in cell viability at >30 uM incubated for 48 hrs by CCK8 assay", "format": "toxicity, cell-based"}, "[5]": {"target": "T1, Protein cereblon/Cyclic GMP-AMP synthase (Homo sapiens, UniProt Q96SW2+Q8N884)", "T1 sequence (Q8N884 whole entry, looked up)": "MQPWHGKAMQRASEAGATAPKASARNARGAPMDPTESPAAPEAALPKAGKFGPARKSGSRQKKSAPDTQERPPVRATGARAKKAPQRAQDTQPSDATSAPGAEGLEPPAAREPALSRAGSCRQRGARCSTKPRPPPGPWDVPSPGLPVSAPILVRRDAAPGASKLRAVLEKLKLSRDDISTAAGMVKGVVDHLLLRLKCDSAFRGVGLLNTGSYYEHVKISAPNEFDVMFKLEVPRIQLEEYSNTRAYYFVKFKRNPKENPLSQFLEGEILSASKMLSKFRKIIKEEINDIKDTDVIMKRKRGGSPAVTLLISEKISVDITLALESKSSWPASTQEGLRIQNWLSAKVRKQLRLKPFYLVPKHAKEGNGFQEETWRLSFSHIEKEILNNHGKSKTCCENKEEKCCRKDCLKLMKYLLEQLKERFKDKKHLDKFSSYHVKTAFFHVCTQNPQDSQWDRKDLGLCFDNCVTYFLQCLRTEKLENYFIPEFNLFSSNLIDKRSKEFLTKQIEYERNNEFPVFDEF", "T1 sequence (Q96SW2 whole entry, looked up)": "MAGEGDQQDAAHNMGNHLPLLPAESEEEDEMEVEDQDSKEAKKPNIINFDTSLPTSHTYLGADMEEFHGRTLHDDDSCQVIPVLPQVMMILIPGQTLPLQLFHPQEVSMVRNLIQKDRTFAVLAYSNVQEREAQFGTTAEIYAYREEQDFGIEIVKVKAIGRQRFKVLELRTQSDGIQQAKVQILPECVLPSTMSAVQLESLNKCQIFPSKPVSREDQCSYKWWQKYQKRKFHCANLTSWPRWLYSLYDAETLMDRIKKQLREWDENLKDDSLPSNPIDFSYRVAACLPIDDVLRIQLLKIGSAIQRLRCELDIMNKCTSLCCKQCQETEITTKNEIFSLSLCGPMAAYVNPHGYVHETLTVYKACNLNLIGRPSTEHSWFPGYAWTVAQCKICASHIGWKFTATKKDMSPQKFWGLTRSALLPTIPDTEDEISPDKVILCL", "assay": "PROTAC activity at CRBN/cGAS in human THP-1 cells assessed as induction of cGAS degradation at 10 uM by Western blot analysis", "format": "cell-based", "conditions": "time 1-24 hrs"}, "RAW264.7 [6]": {"tested_on": "RAW264.7", "assay": "Cytotoxicity against mouse RAW264.7 cells assessed as reduction in cell viability at >30 uM incubated for 48 hrs by CCK8 assay", "format": "toxicity, cell-based", "conditions": "raw264.7, 48 h"}, "Mus musculus [7]": {"tested_on": "Mus musculus", "assay": "Anti-inflammatory activity in DSS-induced ulcerative colitis C57BL/6 mouse model assessed as decrease in disease activity index at 20 to 50 mg/kg/day, ip preadministered with DSS for 7 days followed by replacement with ultrapure water for 3 days with subsequent compound administration starting from day 4 to 10 and measured on day 11", "format": "functional, organism-based", "conditions": "dose 20-50 mg/kg/day, time 8.0 day"}, "Mus musculus [8]": {"tested_on": "Mus musculus", "assay": "Anti-inflammatory activity in DSS-induced ulcerative colitis C57BL/6 mouse model assessed as reduction in IL-6 mRNA level in colon at 20 to 50 mg/kg/day, ip preadministered with DSS for 7 days followed by replacement with ultrapure water for 3 days with subsequent compound administration starting from day 4 to 10 and measured on day 11 by qRT-PCR analysis", "format": "functional, organism-based", "conditions": "dose 20-50 mg/kg/day, time 8.0 day"}, "[9]": {"assay": "Cytotoxicity against mouse RAW-Lucia ISG cells assessed as reduction in cell viability at >30 uM incubated for 48 hrs by CCK8 assay", "format": "toxicity, cell-based"}, "[10]": {"assay": "AUC (0 to infinity) in male C57BL/6 mouse at 1 mg/kg, iv measured after 24 hrs by LC-MS/MS analysis", "format": "ADME, organism-based", "conditions": "in vivo"}, "[11]": {"assay": "AUC (0 to 24 hrs) in male C57BL/6 mouse at 20 mg/kg, ip measured after 24 hrs by LC-MS/MS analysis", "format": "ADME, organism-based", "conditions": "in vivo"}, "[12]": {"assay": "Downregulation of cGAS protein level in human THP-1 cells at 10 uM incubated for 48 hrs by MS-based LFQ whole proteome analysis relative to control", "format": "functional"}, "[13]": {"target": "T1, Protein cereblon/Cyclic GMP-AMP synthase", "assay": "PROTAC activity at CRBN/cGAS in human THP-1 cells assessed as induction of cGAS degradation at 10 uM preincubated with lenalidomide for 2 hrs followed by compound addition and measured after 48 hrs by Western blot analysis", "format": "cell-based"}, "THP-1 [14]": {"tested_on": "THP-1", "assay": "Downregulation of CXCL10 mRNA expression in human THP-1 cells preincubated with compound for 40 hrs followed by HT-DNA addition and measured after 8 hrs by qRT-PCR analysis", "format": "functional, cell-based", "conditions": "dose 1.25-10 µM, time 48.0 hrs"}, "Mus musculus [15]": {"tested_on": "Mus musculus", "assay": "Anti-inflammatory activity in DSS-induced ulcerative colitis C57BL/6 mouse model assessed as increase in colon length at 20 to 50 mg/kg/day, ip preadministered with DSS for 7 days followed by replacement with ultrapure water for 3 days with subsequent compound administration starting from day 4 to 10 and measured on day 11", "format": "functional, organism-based", "conditions": "dose 20-50 mg/kg/day, time 8.0 day"}, "[16]": {"assay": "Clearance in male C57BL/6 mouse at 1 mg/kg, iv measured after 24 hrs by LC-MS/MS analysis", "format": "ADME, organism-based", "conditions": "in vivo"}, "Mus musculus [17]": {"tested_on": "Mus musculus", "assay": "Anti-inflammatory activity in DSS-induced ulcerative colitis C57BL/6 mouse model assessed as normal morphological appearance of spleen at 20 to 50 mg/kg/day, ip preadministered with DSS for 7 days followed by replacement with ultrapure water for 3 days with subsequent compound administration starting from day 4 to 10 and measured on day 11 by H and E staining based analysis", "format": "functional, organism-based", "conditions": "dose 20-50 mg/kg/day, time 8.0 day"}, "THP1-Lucia ISG": {"tested_on": "THP1-Lucia ISG", "assay": "(§1) Inhibition of dsDNA-induced cGAS signaling pathway in human THP1-Lucia ISG cells preincubated with compound for 24 hrs followed by HT-DNA addition and measured after 24 hrs by QUANTI-Luc luciferase reagent based assay", "format": "cell-based", "conditions": "time 48.0 hrs"}, "[18]": {"assay": "as §1", "format": "cell-based"}, "RAW264.7 [19]": {"tested_on": "RAW264.7", "assay": "Cytotoxicity against mouse RAW264.7 cells assessed as reduction in cell viability upto 60 uM incubated for 48 hrs by CCK8 assay", "format": "toxicity, cell-based", "conditions": "raw264.7, 48 h"}, "RAW264.7 [20]": {"tested_on": "RAW264.7", "assay": "Downregulation of CXCL10 mRNA expression in mouse RAW264.7 cells preincubated with compound for 40 hrs followed by HT-DNA addition and measured after 8 hrs by qRT-PCR analysis", "format": "functional, cell-based", "conditions": "dose 2.5-20 µM, time 48.0 hrs"}, "RAW264.7 [21]": {"tested_on": "RAW264.7", "assay": "Inhibition of ds-DNA induced cGAS-STING signaling pathway in mouse RAW264.7 cells assessed as reduction in TBK1 phosphorylation preincubated with compound for 40 hrs followed by HT-DNA addition and measured after 8 hrs by Western blot analysis", "format": "cell-based", "conditions": "dose 0.7-20 µM, time 48.0 hrs"}, "Mus musculus [22]": {"tested_on": "Mus musculus", "assay": "Anti-inflammatory activity in DSS-induced ulcerative colitis C57BL/6 mouse model assessed as […] at 20 to 50 mg/kg/day, ip preadministered with DSS for 7 days followed by replacement with ultrapure water for 3 days with subsequent compound administration starting from day 4 to 10 and measured on day 11", "format": "functional, organism-based", "conditions": "dose 20-50 mg/kg/day, time 8.0 day"}, "RAW-Lucia ISG": {"tested_on": "RAW-Lucia ISG", "assay": "(§2) Inhibition of dsDNA-induced cGAS signaling pathway in mouse RAW-Lucia ISG cells preincubated with compound for 24 hrs followed by HT-DNA addition and measured after 24 hrs by QUANTI-Luc luciferase reagent based assay", "format": "cell-based", "conditions": "time 48.0 hrs"}, "[23]": {"assay": "as §2", "format": "cell-based"}, "[24]": {"assay": "AUC (0 to infinity) in male C57BL/6 mouse at 20 mg/kg, ip measured after 24 hrs by LC-MS/MS analysis", "format": "ADME, organism-based", "conditions": "in vivo"}, "Mus musculus [25]": {"tested_on": "Mus musculus", "assay": "Anti-inflammatory activity in DSS-induced ulcerative colitis C57BL/6 mouse model assessed as reduction in TNF-alpha mRNA level in colon at 20 to 50 mg/kg/day, ip preadministered with DSS for 7 days followed by replacement with ultrapure water for 3 days with subsequent compound administration starting from day 4 to 10 and measured on day 11 by qRT-PCR analysis", "format": "functional, organism-based", "conditions": "dose 20-50 mg/kg/day, time 8.0 day"}, "[26]": {"assay": "MRT (0 to 24 hrs) in male C57BL/6 mouse at 1 mg/kg, iv measured after 24 hrs by LC-MS/MS analysis", "format": "ADME, organism-based", "conditions": "in vivo"}, "Mus musculus [27]": {"tested_on": "Mus musculus", "assay": "Anti-inflammatory activity in DSS-induced ulcerative colitis C57BL/6 mouse model assessed as reduction in NET generation by measuring reduction in citH3 level in colon at 20 to 50 mg/kg/day, ip preadministered with DSS for 7 days followed by replacement with ultrapure water for 3 days with subsequent compound administration starting from day 4 to 10 and measured on day 11 by Western blot analysis", "format": "functional, organism-based", "conditions": "dose 20-50 mg/kg/day, time 8.0 day"}},
  "note": "The source made the active and inactive calls. No cut-off for these calls is given here.",
  "data": [
    {"compound": "Cn1ccc(-c2cc(Cl)c(Cl)c3[nH]c4c(c23)CN(C(=O)CNC(=O)CCCC#Cc2cccc3c2CN(C2CCC(=O)NC2=O)C3=O)CC4)n1", "note": "(centres undefined)", "values": [
      {"measurement": "AUC(0-t) at 24 h", "setting": "[1]", "result": 530, "unit": "ng·h/mL"},
      {"measurement": "Activity", "setting": "THP-1 [2]", "result": "Active"},
      {"measurement": "Activity", "setting": "RAW264.7 [3]", "result": "Dose-dependent-effect"},
      {"measurement": "Activity", "setting": "[4]", "result": "Toxic"},
      {"measurement": "Activity", "setting": "[5]", "result": "Time-dependent-effect"},
      {"measurement": "Activity", "setting": "RAW264.7 [6]", "result": "Toxic"},
      {"measurement": "Activity", "setting": "Mus musculus [7]", "result": "Active"},
      {"measurement": "Activity", "setting": "Mus musculus [8]", "result": "Active"},
      {"measurement": "Activity", "setting": "[9]", "result": "Toxic"},
      {"measurement": "AUC(0-inf)", "setting": "[10]", "result": 531, "unit": "ng·h/mL"},
      {"measurement": "AUC(0-t) at 24 h", "setting": "[11]", "result": 2020, "unit": "ng·h/mL"},
      {"measurement": "Activity", "setting": "[12]", "result": ">80", "unit": "%"},
      {"measurement": "Activity", "setting": "[13]", "result": "inactive"},
      {"measurement": "Activity", "setting": "THP-1 [14]", "result": "Dose-dependent-effect"},
      {"measurement": "Activity", "setting": "Mus musculus [15]", "result": "Active"},
      {"measurement": "clearance", "setting": "[16]", "result": 31.7, "unit": "mL/min/kg"},
      {"measurement": "Activity", "setting": "Mus musculus [17]", "result": "Active"},
      {"measurement": "inhibition", "setting": "THP1-Lucia ISG", "result": "Dose-dependent-effect"},
      {"measurement": "IC50", "setting": "[18]", "result": 1.8, "unit": "µM"},
      {"measurement": "Activity", "setting": "RAW264.7 [19]", "result": "Non-toxic"},
      {"measurement": "Activity", "setting": "RAW264.7 [20]", "result": "Dose-dependent-effect"},
      {"measurement": "inhibition", "setting": "RAW264.7 [21]", "result": "Dose-dependent-effect"},
      {"measurement": "Activity", "setting": "Mus musculus [22]", "result": "Active"},
      {"measurement": "inhibition", "setting": "RAW-Lucia ISG", "result": "Dose-dependent-effect"},
      {"measurement": "IC50", "setting": "[23]", "result": 4.8, "unit": "µM"},
      {"measurement": "AUC(0-inf)", "setting": "[24]", "result": 2800, "unit": "ng·h/mL"},
      {"measurement": "Activity", "setting": "Mus musculus [25]", "result": "Active"},
      {"measurement": "MRT last at 24 h", "setting": "[26]", "result": 54, "unit": "min"},
      {"measurement": "Activity", "setting": "Mus musculus [27]", "result": "Active"}
    ]}
  ]
}
